Patent US20190022061A1 (priority 2017, published 2019)

Tested on: Diet-induced obesity (DIO) mice
Experiment: Blood glucose level in DIO mice
Type: in vivo, C57BL/6J mice
Experimental: In this study, RAASUS products (KH103, KHJ and KHGD) were dosed three times a day (T ID) for 99 days. […] On day 63 post dosing, OGTT test were conducted for all of the mice. […] On day −5, day 14, day 28 the non-fast blood was collected to determine the non-fast BG, insulin, TG, HDL-C, LDL-C and TCHO level. On day 42, day 56, day 70, day 84 the fast blood was collected to determine the fast BG, insulin, TG, HDL-C, LDL-C and TCHO level.
Male C57BL/6J mice (Shanghai Laboratory Animal Center, Shanghai, China, 5 weeks) were fed with high fat diet (D12492i, Research Diet, New Brunswick, N.J.) (caloric contribution: protein, 20%; fat, 60%; carbohydrates, 20%) ad lib for 21 weeks for the induction of obesity.
The mice of Group 3, Group 4 were orally dosed with KH103, KHJ respectively three times per day at 9:00, 13:00, 17:00 and free drinl<KH103, KHJ respectively at day and night from Day O to Day 99. […]
The random blood glucose, insulin level were measured using tailing nick once per two weeks on day −5, day 14, day 28.
The fast blood glucose (fast from 17:30 to 8:00 AM) insulin level were measured using tailing nick once per two weeks on day 42, day 56, day 70, day 84. […]
Blood Glucose: Blood glucose was determined using the Glucosemeter (Johnson and Johnson) and the Glucose Test Strips (Johnson and Johnson).

Structure (SMILES): CC(C)c1c(C(=O)Nc2ccccc2)c(-c2ccccc2)c(-c2ccc(F)cc2)n1CC[C@@H](O)C[C@@H](O)CC(=O)O [Atorvastatin]
- blood glucose level (DIO mice, po three times a day, compared with the vehicle groups, 12 weeks post dose): significantly decrease
- blood sugar level (animal study, diabetics, general statement): lower down
